In patent US20260265184A1, “DEGRADABLE CROSSLINKING AGENT” (NAGASE CHEMTEX CORPORATION, priority 2023, published 2026):

Legend:
Format in all cases: physicochemical
[1] = Solvent solubility evaluation of the degradable cross-linking agents; details: for Solvent solubility, Isopropanol / Solvent solubility, Methanol / Solvent solubility, Methylisobutyl ketone / Solvent solubility, N-methylpyrrolidone / Solvent solubility, Propylene glycol monomethyl ether: 0.5 mL solvent added to 2 mg, visual, room temperature, then heat gun; for Solvent solubility, overall assessment in words: summary over the solvents of Tables 1 and 2
From the text: The degree of dissolution was visually observed. When an undissolved portion remained at room temperature, the mixture was sufficiently heated with a heat gun and then visually observed again. The scoring was as follows: 3 points for those that completely dissolved at room temperature; 2 points for those in which an undissolved portion remained at room temperature but completely dissolved after heating; 1 point for those in which a slight amount of an undissolved portion remained after heating; and 0 points for those in which a large amount of an undissolved portion remained after heating. Here, the degradable cross-linking agents in liquid form were evaluated for compatibility with the solvents.

[2] = Degradation of the degradable cross-linked product on immersion in oxidizing agent solution
Procedure: The method for degrading a degradable cross-linked product according to the present invention includes bringing the degradable cross-linked product into contact with an aqueous solution containing an oxidizing agent at 100° C. or lower.
The conditions for bringing the degradable cross-linked product into contact with the aqueous solution containing the oxidizing agent include a temperature of 100° C. or lower, preferably of 15° C. to 50° C. The conditions preferably include a duration of 60 minutes or shorter, more preferably 10 minutes or shorter. If necessary, the cross-linked product may be shaken or stirred during the reaction with the oxidizing agent. Non-limiting specific examples of the method for bringing the degradable cross-linked product into contact with the aqueous solution containing the oxidizing agent include immersing the degradable cross-linked product in the aqueous solution containing the oxidizing agent, or spraying or adding dropwise the aqueous solution containing the oxidizing agent onto the degradable cross-linked product.
An amount of 0.3 g of the compound of formula (A), 0.1 g of poly(methylhydrosiloxane), and 4.0 mg of a platinum catalyst (trade name: CAT-PL-50T, available from Shin-Etsu Chemical Co., Ltd.) were added to 40 g of dimethyl sulfoxide to obtain a thermosetting composition solution. The solution was applied onto a glass substrate to give a cured film thickness of 0.1 μm, and then dried and cured at 150° C. for 10 minutes to obtain a degradable cross-linked product.

[3] = Degradation of the compound on adding sodium hypochlorite aqueous solution; details: 3% sodium hypochlorite aqueous solution added to the compound
[4] = Solubility of the degradable cross-linked product (cured film) in water / organic solvent
Procedure: The solution was applied onto a glass substrate to give a cured film thickness of 0.1 μm, and then dried and cured at 150° C. for 10 minutes to obtain a degradable cross-linked product.

[5] = cured film immersed in 3% sodium hypochlorite aqueous solution

Solvent solubility, Isopropanol [1]	Solvent solubility, Methanol [1]	Solvent solubility, Methylisobutyl ketone [1]	Solvent solubility, N-methylpyrrolidone [1]	Solvent solubility, Propylene glycol monomethyl ether [1]	Solvent solubility, overall assessment in words [1]	Solubility of the degradable cross-linked product made with the compound ([4]; in water)	Solubility of the degradable cross-linked product made with the compound ([4]; in isopropanol and water)	Solubility of the degradable cross-linked product made with the compound ([4]; in THF and water)	SMILES	Degradation of the degradable cross-linked product made with the compound [2, 5]	Degradation of the compound by oxidizing agent [3]	Solvent solubility, overall assessment in words ([1]; listed as Example 8)	Degradation of the degradable cross-linked product made with the compound ([2]; cured film immersed in 2-fold dilution of a 3% sodium hypochlorite aqueous solution with isopropanol)	Solvent solubility, overall assessment in words ([1]; listed as Example 9)	Degradation of the degradable cross-linked product made with the compound ([2]; cured film immersed in 3-fold dilution of a 3% sodium hypochlorite aqueous solution with THE)
0	0	0	0	0	poorly soluble in all the solvents	insoluble			C=CCCC(=O)NNC(=O)CCCCCCCCC(=O)NNC(=O)OCC=C [Formula (A), reference compound]	foaming and removal of the product from the substrate were observed	foaming and degradation of the compound were observed				
1	2	0	3	0		insoluble			C=CCNC(=O)NNC(=O)CCCCCCCCC(=O)NNC(=O)NCC=C [Formula (B)]	foaming and removal of the product from the substrate were observed	foaming and degradation of the compound were observed				
1	2	0	3	2		insoluble			C=CCOC(=O)NNC(=O)NCCCCCCNC(=O)NNC(=O)OCC=C [Formula (C)]	foaming and removal of the product from the substrate were observed	foaming and degradation of the compound were observed				
3	3	2	3	3		insoluble			C=CCOC(=O)NNC(=O)CCCCCCCCC(=O)NNC(=O)OCC=C [Formula (D)]	foaming and removal of the product from the substrate were observed	foaming and degradation of the compound were observed				
3	3	2	3	3		insoluble			C=CCOC(=O)NNC(=O)CCCO [Formula (G)]	foaming and removal of the product from the substrate were observed	foaming and degradation of the compound were observed				
0	3	0	3	0			insoluble		C=C(C)C(=O)OCCNC(=O)NNC(=O)c1cc(O)cc(O)c1 [Formula (I)]		foaming and degradation of the compound were observed	slightly less soluble than the compound of Example 3 but exhibited an acceptable level of solubility	foaming and removal of the product from the substrate were observed		
1	1	0	1	0		insoluble			O=C(CCS)NNC(=O)NCCCCCCNC(=O)N(CCCCCCNC(=O)NNC(=O)CCS)C(=O)NCCCCCCNC(=O)NNC(=O)CCS [Formula (J)]	foaming and removal of the product from the substrate were observed	foaming and degradation of the compound were observed			slightly less soluble than the compound of Example 3 but exhibited an acceptable level of solubility	
1	2	1	3	3		insoluble			C=CCOC(=O)NNC(=O)CCC(NC(=O)NNC(=O)CCCC(=O)NNC(=O)NC(CCC(=O)NNC(=O)OCC=C)C(=O)NNC(=O)OCC=C)C(=O)NNC(=O)OCC=C (stereo not drawn) [Formula (L)]	foaming and removal of the product from the substrate were observed	foaming and degradation of the compound were observed				
0	3	0	3	3				insoluble	O=C(CCCCCOC(=O)NNC(=O)OCCO)NNC(=O)c1cccc(C(=O)NNC(=O)CCCCCOC(=O)NNC(=O)OCCO)c1 [Formula (M)]		foaming and degradation of the compound were observed				foaming and removal of the product from the substrate were observed
